Experiments:
hämorrhagischen Schock [1] = experiment: Second shock model: two-day observation phase, no preparation of the M. cremaster; assay type: in vivo; settings: for Überlebende: number of survivors, N=15 per compound, Kontrolle 12 of 40
Text: (§1) Die Eignung von Alinidin und anderen Verbindungen der allgemeinen Formel I zur erfindungsgemäßen Anwendung bei der Schocktherapie wurde in tierexperimentellen Untersuchungen an einem Cremaster-Modell bestätigt. Dieses Modell stellt eine etablierte Methode dar, (S. Hergenröder "Mikrozirkulation im hämorrhagischen Schock", Diplomarbeit am Fachbereich Biologie der Joh.-Gutenberg-Universität, Mainz 1987). An diesem Modell werden Einflüsse auf den systemischen Blutdruck, die Herzfrequenz, den daraus errechneten Schockindex sowie wichtige mikrozirkulatorische Parameter, wie Arteriolendurchmesser, die Eryhthrozytenfließgeschwindigkeit und die daraus errechnete Mikroperfusion (Organdurchblutung) und die Überlebensrate bestimmt. Der Versuchsablauf besteht aus einer präparativen Kontrollphase, gefolgt von einer spontanen Entblutung mit einem raschen Blutdruckabfall auf 25 mm Hg, einer isovolämischen intravenösen 10-minütigen Infusion mit physiologischer NaCl-Lösung (Kontrolltiere) bzw. physiologischer NaCl-Lösung mit darin gelösten Wirkstoffen und einer abschließenden Nachbeobachtungsphase (60 - 120 Minuten). Das zweite Modell unterscheidet sich durch eine zweitägige Nachbeobachtungsphase ohne Präparation des M. cremaster.

hämorrhagischen Schock [2] = experiment: Cremaster model of haemorrhagic shock (bleeding to 25 mm Hg, 10-minute isovolaemic i.v. infusion, 60-120 min observation); assay type: in vivo; settings: Alinidin 1 mg/kg, N=6
Text: as §1, with “cremaster. […]” for “cremaster.”

**Q.** With CCc1cccc(CC)c1N=C1NCCN1 [A, 2-[2,6-Diethylphenylimino]imidazolidin] as the molecule, how does the Überlebende (hämorrhagischen Schock [1]) read?
**A.** Its Überlebende is 10.

**Q.** How did the Überlebende (hämorrhagischen Schock [1]) turn out when CC#CCN(C1=NCCN1)c1c(Cl)cccc1Cl [B, 2-[N-2,6-Dichlorphenyl-N-2-butinylamino]imidazolin-(2)] was run?
**A.** The Überlebende was 10.

**Q.** How did the Überlebensrate (hämorrhagischen Schock [2]; NaCl control group 4 of 20 animals surviving after 60 minutes) turn out when C=CCN(C1=NCCN1)c1c(Cl)cccc1Cl [C, 2-[N-2,6-Dichlorphenyl-N-allylamino]imidazolin-(2)] was run?
**A.** The Überlebensrate was 100%.

**Q.** What about the “systemische, insbesondere mikrozirkulatorische Parameter” value (hämorrhagischen Schock [2]; effects in NaCl control group small and short-lived) of the same molecule?
**A.** Its value is “Erholung”.

**Q.** What about the Überlebende (hämorrhagischen Schock [1]) of the same molecule?
**A.** Its Überlebende is 13.

**Q.** What about the “überlebten (Tiere)” value (hämorrhagischen Schock [1]; survivors out of 15 pretreated animals) of the same molecule?
**A.** Its value is 13.

— patent EP0326936A2, “Use of 2-(phenyl-amino)-2-imidazolines in the application of shock therapy” (BOEHRINGER INGELHEIM KG, priority 1988, dated 1989)
